Experiment [1] has as its system cholesterol biosynthesis in HepG2 cells. The experiment can be described thus: HepG2 cell culture model - 14C-acetate incorporation assay (cholesterol synthesis). To be noted: 3-4 hours incubation, 2-14C-acetate incorporation into digitonin-precipitable sterols, vs. vehicle controls; for inhibition at 10 µM: Homo sapiens, read-out: Sterol Biosynthesis % Inhibition 10µM. In kind it is cell-based. On the procedure:
HepG2 Cell Culture Model - 14C-Acetate Incorporation Assay
After 16 hours in LDS containing media, test compounds were added in dimethylsulfoxide vehicle (0.5% v/v final conc.) for an incubation period of 3-4 hours. Cholesterol synthesis was then directly determined by 2-14C-acetate (1.8 mCi/mmol, 0.5 µCi/ml) incorporation for 30 to 60 minutes (previously shown to be time-linear) into total digitonin-precipitable sterols. […] Percent inhibition was calculated from the average of duplicates vs. triplicate vehicle controls conducted simultaneously.

For experiment [2], the system named is HMG-CoA reductase. As to the kind of experiment: HepG2 cell culture model - HMG-CoA reductase suppression assay. To be noted: HepG2 cells, 4 hours of incubation at 37°, decrease in specific activity vs. vehicle controls. In kind it is cell-based. On the procedure:
HepG2 Cell Culture Model - HMG-CoA Reductase Suppression Assay
HMG-CoA reductase suppression in HepG2 cells was conducted by growing cells in RPMT-1640 plus 10% FBS on 100 mm plates, and when cells reached approximately 75% confluency, inducing with LDS (as described above) for 16 hours prior to assays. Compounds were added using dimethylsulfoxide vehicle (0.5% v/v, final) and after 4 hours of incubation at 37°, cells were harvested by scraping. Cell pellets were rinsed and lysed by sonication in 1.7 ml cold 50 mM imidazole-HCl, pH 7.2, 50 mM NaCl, 10 mM EDTA, 10 mM EGTA, 5mM DTT, and 40 µM leupeptin). Lysates were centrifuged at 150 x g and the supernatant was centrifuged at 100,000 x g in a Beckman airfuge to isolate the post-nuclear total membrane fraction. The membranes were resuspended in 50 mM imidazole-HCl, pH 7.2, 250 mM NaCl, 5 mM DTT, and 20 µM leupeptin and used for the assay of HMG-CoA reductase activity by the radiochemical procedure as described previously by Parker et al., J. Biol. Chem., 264: 4877-4887, (1989). Values were normalized for protein content by the Lowry method as cited previously (ibid). HMG-CoA reductase percent suppression was calculated as the decrease in specific activity of HMG-CoA reductase for treated cells vs. controls receiving vehicle. Averages of duplicate cell determinations assayed in duplicate were taken.

The test system of experiment [3] is Normocholesterolemic Chickens. As to the kind of experiment: In vivo evaluation in normocholesterolemic chickens - serum cholesterol pools. To be noted: 6-week old male chickens, 50 ppm in diet for four weeks; for Total Cholesterol: serum. On the procedure: (§1) In Vivo Biological Evaluation in Normocholesterolemic Chickens
(§2) Newborn male chicks (10 for each group) were raised on a standard corn-soybean based control diet for two weeks and then switched to either control or experimental diets for four weeks. Drug treatment consisted of the addition of test compounds to the corn-soybean-based diet at a concentration of 50 ppm. At the end of the feeding period, all the birds were fasted (36 hours) and refed (48 hours) to induce cholesterolgenic enzymes prior to sacrifice. The specific activity of HMGR, total serum cholesterol levels, LDL cholesterol and HDL cholesterol pools were determined (Table 6).

Experiment [4] deals with HMGR. The experiment can be described thus: In vivo evaluation in normocholesterolemic chickens - specific activity of HMGR. To be noted: 6-week old male chickens, 50 ppm in diet for four weeks. On the procedure:
as §1, §2

By inhibition is commonly meant the share of the control response that was lost under treatment. With `CC(C)=CCC/C(C)=C/CC/C(C)=C/CCCOc1ccc(O)cc1` [Example 8, 4-[(5,9,13-Trimethyl-4(E), 8(E),12-tetradecatrienyl)oxy]phenol], in experiment [1], the inhibition at 10 µM worked out at 71%. Besides, in experiment [2], the “HMG-CoA Reductase Suppression % 10µM” value turned out to be 29%.
Consider “4-[(5,9,13-Trimethyl-4(E), 8(E),12-tetradecatrienyl)oxy]benzenemethanol [Example 21]”, for which the “Sterol Biosynthesis % Inhibition 10µM” value in experiment [1] was 64%. The “HMG-CoA Reductase Suppression % 10µM” value in experiment [2] was determined as 9%.
Consider γ-tocotrienol [reference compound], for which, in experiment [1], the “Sterol Biosynthesis % Inhibition 10µM” value was determined as 69%. Besides, in experiment [2], the “HMG-CoA Reductase Suppression % 10µM” value was determined as 63%. In addition, in experiment [3], the “HDL Cholesterol” value was 91 % of Control, the “LDL Cholesterol” value is 44 % of Control and the “Total Cholesterol” value was 75 % of Control. In addition, the HMGR in experiment [4] is given as 82 % of Control.
As for `CC(C)=CCC/C(C)=C/CC/C(C)=C/CCCOc1ccc(O)c(C)c1C` [Example 11, 2,3-Dimethyl-4-[(5,9,13-Trimethyl-4(E), 8(E), 12-tetradecatrienyl)oxy]phenol], in experiment [1], the inhibition at 10 µM is 64%. Also, in experiment [2], the “HMG-CoA Reductase Suppression % 10µM” value is 53%.
Taken in the same sequence, the figures for `CC(C)=CCCC(C)=CCCC(C)=CCCCOc1c(C)cc(O)cc1C` [Example 13, 3,5-Dimethyl-4-[(5,9,13-Trimethyl-4,8, 12-tetradecatrienyl)oxy]phenol] were 70% and 45%.
Consider `CC(C)=CCC/C(C)=C/CC/C(C)=C/CCCOc1ccc(NS(C)(=O)=O)cc1` [Example 25, N-[4-[(5,9,13-Trimethyl-4(E), 8(E),12-tetradecatrienyl)oxy]phenyl]methanesulfonamide], for which, in experiment [1], the inhibition at 10 µM was 77%. Besides, the “HMG-CoA Reductase Suppression % 10µM” value in experiment [2] worked out at 9%. In addition, in experiment [3], the “HDL Cholesterol” value was 91 % of Control, the “LDL Cholesterol” value is 45 % of Control and the “Total Cholesterol” value is 72 % of Control. Also, the HMGR in experiment [4] is on record as 86 % of Control.
As for `CC(C)=CCC/C(C)=C/CC/C(C)=C/CCCNc1ccc(O)cc1` [Example 36, 4-[(5,9,13-Trimethyl-4(E), 8(E),12-tetradecatrienyl)amino]phenol], the inhibition at 10 µM in experiment [1] was 43%.
In the case of `CC(C)=CCC/C(C)=C/CC/C(C)=C/CCCSc1ccc(O)cc1` [Example 30, 4-[(5,9,13-Trimethyl-4(E), 8(E),12-tetradecatrienyl)thio]phenol], the inhibition at 10 µM in experiment [1] is 68%. Further, in experiment [2], the “HMG-CoA Reductase Suppression % 10µM” value turned out to be 29%.
On to `CC(C)=CCC/C(C)=C/CC/C(C)=C/CCOc1ccc(O)c(C)c1C` [Example 10, 2,3-Dimethyl-4-[(4,8,12-Trimethyl-3(E),7(E), 11-tridecatrienyl)oxy]phenol], for which the inhibition at 10 µM in experiment [1] turned out to be 58%. In experiment [2], the “HMG-CoA Reductase Suppression % 10µM” value is given as 38%.
On to `CC(C)=CCC/C(C)=C/CC/C(C)=C/CCCOc1cccc(O)c1` [Example 7, 3-[(5,9,13-Trimethyl-4(E), 8(E),12-tetradecatrienyl)oxy]phenol], for which the inhibition at 10 µM in experiment [1] is 38%.
`CC(C)=CCC/C(C)=C/CC/C(C)=C/CCC[S+]([O-])c1ccc(O)cc1` (stereo not shown) [Example 31, 4-[(5,9,13-trimethyl-4(E),8(E),12-tetradecatrienyl)sulfinyl]phenol]: the inhibition at 10 µM in experiment [1] stood at 47%.
The same measure, in the same setting: with `CC(C)=CCC/C(C)=C/CC/C(C)=C/CCCS(=O)(=O)c1ccc(O)cc1` [Example 32, 4-[(5,9,13-trimethyl-4(E),8(E),12-tetradecatrienyl)sulfonyl]phenol] the figure was 38%.
Turning to `CC(C)=CCC/C(C)=C/CC/C(C)=C/CCCOc1c(C)cc(OC(N)=O)cc1C` [Example 14, 3,5-Dimethyl-4-[(5,9,13-Trimethyl-4(E), 8(E), 12-tetradecatrienyl)oxy]phenyl carbamate], the inhibition at 10 µM in experiment [1] is 65%. Also, in experiment [2], the “HMG-CoA Reductase Suppression % 10µM” value is 21%.
For `CC(C)=CCC/C(C)=C/CC/C(C)=C/CCCOc1ccccc1O` [Example 6, 2-[(5,9,13-Trimethyl-4(E), 8(E),12-tetradecatrienyl)oxy]phenol], in experiment [1], the inhibition at 10 µM stood at 10%.
Consider “1-(4-Hydroxyphenyl)-6,10,14-Trimethyl-5(E), 9(E), 13-Pentadecatrien-1- One [Example 35]”, for which the “Sterol Biosynthesis % Inhibition 10µM” value in experiment [1] was found to be 78%.
With `CC(C)=CCC/C(C)=C/CC/C(C)=C/CCCOc1c(C)cc(O)cc1C` [Example 12, 3,5-Dimethyl-4-[(5,9,13-Trimethyl-4(E), 8(E), 12-tetradecatrienyl)oxy] phenol], in experiment [1], the inhibition at 10 µM came to 70%. The “HMG-CoA Reductase Suppression % 10µM” value in experiment [2] is on record as 35%. For the same compound, in experiment [3], the “HDL Cholesterol” value is given as 70 % of Control, the “LDL Cholesterol” value is recorded as 50 % of Control and the “Total Cholesterol” value is recorded as 67 % of Control.
For `CC(C)=CCC/C(C)=C/CC/C(C)=C/CCCOc1c(F)c(F)c(O)c(F)c1F` [Example 19, 2,3,5,6-Tetrafluoro-4-[(5,9,13-Trimethyl-4(E), 8(E)-,12-tetradecatrienyl)oxy]phenol], in experiment [1], the inhibition at 10 µM turned out to be 55%.
For “2-Hydroxy-4,6-Dimethyl-5-[(5,9,13-Trimethyl-4(E), 8(E), 12-Tetradecatrienyl)oxy]-1,3-Benzenedimethanol [Example 17]”, the “Sterol Biosynthesis % Inhibition 10µM” value in experiment [1] was 72%.
Take `CC(=O)c1cc(O)ccc1OCCC/C=C(\C)CC/C=C(\C)CCC=C(C)C` [Example 20, 1-[5-Hydroxy-2-(5,9,13-Trimethyl-4(E), 8(E),12-tetradecatrienyloxy)phenyl]ethanone]: the inhibition at 10 µM in experiment [1] worked out at 69%.

(Values after patent EP0571928A1, “Acyclic Tocotrienol analogs in the treatment of hypercholesterolemia and hyperlipidemia” (Bristol-Myers Squibb Company, priority 1992, dated 1993).)
